Results on 7 compounds are retold here after PMC8911803, “The Antiprotozoal Activity of Papua New Guinea Propolis and Its Triterpenes” (Molecules, 2022).

Structures are written as SMILES. Values joined by “and” are separate entries in the source; they are usually repeats but may differ in a detail not shown here. Equal values may be shown once. Read-outs that look alike come from different tables or passages of the source.

One test concerns T. congolense 6C3. Description: microbe, parasite or virus in culture. The class given is cell-based, Trypanosoma congolense. The settings on record: for RF resistance factor: T. congolense 6C3 vs IL3000.
The subject of a further test is T. b. brucei S427WT. The test is described as follows: Alamar blue (resazurin) assay, T. b. brucei s427 wild-type. The class given is cell-based, Trypanosoma b. brucei. Here is the method:
(§1) Alamar blue (resazurin) assays were used to obtain the EC50 values for PNG and its fractions in at least three independent determinations.
(§2) The extract and the purified compounds were cultured and tested against T. b. brucei, T. congolense and C. fasciculata as described previously. The T. b. brucei strains were a standard drug-sensitive lab strain, Lister 427 (wild-type) and the derived cell line B48 was developed from the wild-type by gene deletion of the drug transporter TbAT1 followed by in vitro adaptation to pentamidine, leading to the further loss of the gene encoding TbAQP2 [48], rendering it highly resistant to the diamidine and melaminophenyl arsenical classes of trypanocides. The T. congolense strains were the lab strain IL3000 and its diminazene-adapted clone 6C3 [29]. The C. fasciculata strain HS6 was a gift of Prof. Terry Smith (University of St Andrews, UK).

Test [1] concerns T. b. brucei B48. The test is described as follows: microbe, parasite or virus in culture. The class given is cell-based, Trypanosoma b. brucei. Particulars: for RF resistance factor / RF resistance factor (EC50 B48/EC50 WT): T. b. brucei B48 vs S427WT. Here is the method:
as §1, §2

The test system of a further test is U937 cells. Description: Cytotoxicity against U937 cells (resazurin). The class given is cell-based, human. Particulars: for EC50 / AVG EC50 U937 cells: n = 3; for SI, selectivity index relative to T. b. brucei WT: EC50(U937)/EC50(TbbWT): U937 vs T. b. brucei WT. Here is the method: U937 cells (European Collection of Cell Cultures Cat. No. 85011440, supplied by Sigma Aldrich, Dorset, UK) were cultured as described previously. U937 cells were grown to log phase at 37 °C and harvested at a density of 1 × 10^5 cells/mL in a 96-well plate (TPP, Trasadingen, Switzerland). Aliquots of 100 µL/well of the cells were added and the plate was incubated for 24 h at 37 °C, 5% CO2, 100% humidity. A 2-fold serial dilution of the test compound was carried out in growth medium, in another 96-well plate, and 100 μL of each dilution was then transferred to the cultured cells using a multichannel pipette, followed by another incubation for 24 h. Resazurin dye was then added at a final concentration of 10% (v/v) and the plates were incubated for a further 24 h, after which fluorescence was measured using a Wallac Victor 2 microplate reader (λ Ex/Em: 560/590 nm). The compounds and fractions were tested in triplicate, and cell viability was expressed as a percentage of the drug-free control. The resulting data were analysed using GraphPad Prism 8 to obtain dose-response curves and corresponding mean inhibitory concentration (EC50) values.

The subject of a further test is T. congolense IL3000. Description: Antiprotozoal assay, drug-sensitive T. congolense IL3000. The class given is cell-based, Trypanosoma congolense.
Another test relates to C. fasciculata. The test is described as follows: Antiprotozoal assay, C. fasciculata. Particulars: Table 9. The class given is cell-based, Crithidia fasciculata.
In test [2] the test system is T. b. brucei B48. The test is described as follows: Drug sensitivity using cell count (growth curve) of T. b. brucei B48. The class given is cell-based, Trypanosoma b. brucei. Particulars: 1×, 2× and 4× EC50, 2 × 10^5 cells/mL, up to 48 h.
[3] abbreviates: Trypanosoma congolense, Table 7, purified compounds, n = 3.
Where [4] appears, read: Trypanosoma brucei, Table 5, purified compounds, n = 3.
[5] abbreviates: Trypanosoma brucei, read-out: AVG EC50 T. b. brucei B48, Table 5, purified compounds, n = 3.
Setting [6] is: Homo sapiens, U-937, Table 8, purified compounds.
Where [7] appears, read: Trypanosoma congolense, Table 7, purified compounds, n = 3, read-out: AVG EC50 T. congolense IL3000.
Where [8] appears, read: Table 7, purified compounds, n = 3.
[9] abbreviates: drug-resistant strain vs standard strain.
The mark [10] stands for this setting: Table 5, purified compounds, n = 3.
Where [11] appears, read: Table 5, purified compounds, n = 3, read-out: AVG EC50 T. b. brucei B48.

As for `C=C(C)[C@@H]1CC[C@]2(C(=O)O)CC[C@]3(C)[C@H](CC[C@@H]4[C@@]5(C)CC[C@H](O)C(C)(C)[C@@H]5CC[C@]43C)[C@@H]12` [Betulinic acid, betulinic acid], the RF resistance factor in the test on T. congolense 6C3 (Table 7) turned out to be 1.05; with T. b. brucei B48 [1] (Table 5), 0.81. In addition, the EC50 with T. congolense 6C3 (setting [3]) is 18.1 µg/mL; with T. b. brucei S427WT (setting [4]), 24.2 µg/mL and 53.1 µM; in the test on T. b. brucei B48 [1] (setting [5]) it was 19.6 µg/mL and 42.9 µM; in the test on U937 cells (setting [6]), 51.7 µg/mL and 113 µM; with T. congolense IL3000 (setting [7]), 17.2 µg/mL. Moreover, the “SI, selectivity index relative to T. b. brucei WT: EC50(U937)/EC50(TbbWT)” value in the test with U937 cells turned out to be 2.1.
As for `CC(C)(O)[C@@H]1CC[C@]2(CO)CC[C@]3(C)[C@H](CC[C@@H]4[C@@]5(C)CC[C@H](O)C(C)(C)[C@@H]5CC[C@]43C)[C@@H]12` [Hydroxybetulin, 20-hydroxybetulin], the RF resistance factor is recorded as 0.48 with T. congolense 6C3 (Table 6) and 0.47 in the test on T. b. brucei B48 [1] (Table 5). The “AVG EC50 T. congolense 6C3” value was 6.09 µg/mL in the test on T. congolense 6C3 (Table 6, diminazene-resistant, n = 3) and 2.77 µg/mL in the test on T. congolense 6C3 (setting [8]). For the same compound, the EC50 in the test with T. congolense 6C3 (setting [8]) came out at 6.09 µM; in the test with T. b. brucei S427WT (setting [10]), 4.44 µM; with T. b. brucei B48 [1] (setting [11]) it was 2.09 µM; in the test with U937 cells (Table 8, purified compounds) it was 102000 nM. Further, the “fold activity against drug-resistant strain of T. congolense” value with T. congolense 6C3 (setting [9]) is more than 2 fold. The “AVG EC50 T. b. brucei S427WT” value in the test on T. b. brucei S427WT (Table 3, n = 3) turned out to be 2.04 µg/mL; in the test on T. b. brucei S427WT (setting [10]) it was 2.04 µg/mL; in the test with T. b. brucei S427WT (Table 5, purified compounds, n = 3, listed as hydroxybetulin), 2.0 ± 0.1 µg/mL. Also, the “fold more active than betulinic acid against T. b. brucei” value with T. b. brucei S427WT (relative to betulinic acid) was found to be 15 fold. The “AVG EC50 C. fasciculata” value with C. fasciculata came out at 23.4 µg/mL. For the same compound, the “RF resistance factor (EC50 B48/EC50 WT)” value in the test on T. b. brucei B48 [1] (Table 3) came out at 0.47. In addition, the “AVG EC50 T. b. brucei B48” value was found to be 2.09 µg/mL with T. b. brucei B48 [1] (Table 3, pentamidine-resistant, n = 3) and 0.97 µg/mL in the test on T. b. brucei B48 [1] (setting [10]). The “fold activity against drug-resistant strain of T. b. brucei” value with T. b. brucei B48 [1] (setting [9]) is on record as more than 2 fold. Moreover, the “AVG EC50 U937 cells” value in the test on U937 cells (Table 4) came to 47.0 µg/mL; with U937 cells (Table 8, purified compounds), 47.0 µg/mL. In the test with U937 cells, the “SI, selectivity index relative to T. b. brucei WT: EC50(U937)/EC50(TbbWT)” value is 23.0. Also, in the test with U937 cells (U937 vs WT T. congolense), the “selectivity index against WT T. congolense” value is 8.1. Also, the “selectivity index against resistant T. brucei” value with U937 cells (U937 vs resistant T. brucei) is 48.5. In addition, the “selectivity index against resistant T. congolense” value with U937 cells (U937 vs resistant T. congolense) is 17.0. The “AVG EC50 T. congolense IL3000” value stood at 5.77 µg/mL in the test with T. congolense IL3000 (Table 6, n = 3); 5.77 µg/mL in the test on T. congolense IL3000 (setting [8]); 5.8 ± 1.3 µg/mL with T. congolense IL3000 (Table 7, purified compounds, n = 3, listed as hydroxybetulin). For the same compound, the “Effect on in vitro growth of T. b. brucei B48 (cell count over time)” value in the test on T. b. brucei B48 [2] is reported as “more trypanostatic effect”; in the test on T. b. brucei B48 [2] (listed as 20-hydroxybetulin), “trypanostatic”.
In the case of `C=C(C)[C@@H]1CC[C@]2(CO)CC[C@]3(C)[C@H](CC[C@@H]4[C@@]5(C)CC[C@H](O)C(C)(C)[C@@H]5CC[C@]43C)[C@@H]12` [Betulin, betulin], the values for the RF resistance factor in the test with T. congolense 6C3 (Table 7) and in the test with T. b. brucei B48 [1] (Table 5) were 1.03 and 0.84, respectively. For the same compound, the half-maximal effective concentration (EC50) in the test with T. congolense 6C3 (setting [3]) is 22.1 µg/mL and 49.9 µM; in the test with T. b. brucei S427WT (setting [4]), 26.6 µg/mL and 60.1 µM; in the test on T. b. brucei B48 [1] (setting [5]), 22.3 µg/mL and 50.5 µM; with U937 cells (setting [6]) it was 55.8 µg/mL and 126 µM; in the test with T. congolense IL3000 (setting [7]), 21.5 µg/mL. Moreover, the “SI, selectivity index relative to T. b. brucei WT: EC50(U937)/EC50(TbbWT)” value in the test on U937 cells is recorded as 2.1.
Consider `N=C(N)c1ccc(OCCCCCOc2ccc(C(=N)N)cc2)cc1` [Pentamidine, pentamidine, reference compound], for which the 50% effective concentration (EC50) in the test on T. b. brucei S427WT (Trypanosoma brucei, Table 3, pentamidine control, footnote: values in µM) stood at 0.0034 µM; with T. b. brucei S427WT (setting [4]) it was 0.0043 µM; in the test with T. b. brucei B48 [1] (Trypanosoma brucei, read-out: AVG EC50 T. b. brucei B48, Table 3, pentamidine control, footnote: values in µM), 0.721 µM; with T. b. brucei B48 [1] (setting [5]), 0.62 µM. Besides, the “RF resistance factor (EC50 B48/EC50 WT)” value with T. b. brucei B48 [1] (Table 3) was 210; with T. b. brucei B48 [1] (Table 3, listed as pentamidine) it was 210.8. In the test on T. b. brucei B48 [1] (Table 5), this compound had an RF resistance factor of 145. Moreover, the “Effect on in vitro growth of T. b. brucei B48 (cell count over time)” value with T. b. brucei B48 [2] was “parasites were almost completely eliminated from the media after 32 h”.
`N=C(N)c1ccc(/N=N/Nc2ccc(C(=N)N)cc2)cc1` [Diminazene, reference compound]: the RF resistance factor is 5.90 in the test with T. congolense 6C3 (Table 6) and 5.5 in the test on T. congolense 6C3 (Table 7). The EC50 in the test with T. congolense 6C3 (Trypanosoma congolense, Table 6, diminazene control, footnote: EC50 in µM) was found to be 1.54 µM; with T. congolense 6C3 (setting [3]), 1.55 µM; with T. congolense IL3000 (Trypanosoma congolense, read-out: AVG EC50 T. congolense IL3000, Table 6, diminazene control, footnote: EC50 in µM) it was 0.26 µM; in the test on T. congolense IL3000 (Trypanosoma congolense, read-out: AVG EC50 T. congolense IL3000, Table 7, purified compounds, n = 3), 0.28 µM.
Consider `C[C@H]1[C@H](C)CC[C@]2(C(=O)O)CC[C@]3(C)C(=CC[C@@H]4[C@@]5(C)C[C@@H](O)[C@H](O)[C@@](C)(CO)[C@@H]5[C@H](O)C[C@]43C)[C@H]12` [Madecassic acid, madecassic acid], for which the RF resistance factor in the test with T. congolense 6C3 (Table 7) and in the test on T. b. brucei B48 [1] (Table 5) was 0.88 each time. The EC50 is 19.8 µg/mL and 59.1 µM in the test with T. congolense 6C3 (setting [3]); 18.1 µg/mL and 36 µM in the test with T. b. brucei S427WT (setting [4]); 16 µg/mL and 31.7 µM with T. b. brucei B48 [1] (setting [5]); 90.7 µg/mL and 180 µM with U937 cells (setting [6]); 22.6 µg/mL and 67.6 µM with T. congolense IL3000 (setting [7]). In the test with U937 cells, the “SI, selectivity index relative to T. b. brucei WT: EC50(U937)/EC50(TbbWT)” value is given as 5.0.
With `CC(CC/C=C(/CO)C(=O)O)C1CCC2(C)C3CCC4C(C)(C)C(O)CCC45CC35CCC12C` (stereo not shown) [Hydroxymangiferolic acid, 27-hydroxyisomangiferolic acid], the results for the RF resistance factor with T. congolense 6C3 (Table 7) and in the test on T. b. brucei B48 [1] (Table 5) were 0.94 and 0.87, respectively. In addition, the “AVG EC50 T. congolense 6C3” value in the test on T. congolense 6C3 (setting [8]) was found to be 15.7 µg/mL. The concentration for a half-maximal effect (EC50) stood at 33.2 µM with T. congolense 6C3 (setting [8]); 28.8 µM in the test with T. b. brucei S427WT (setting [10]); 25 µM in the test with T. b. brucei B48 [1] (setting [11]); 260000 nM in the test with U937 cells (Table 8, purified compounds); 35.3 µM with T. congolense IL3000 (Table 7, purified compounds, n = 3, read-out: AVG EC50 T. congolense IL3000). Also, in the test on T. b. brucei S427WT (setting [10]), the “AVG EC50 T. b. brucei S427WT” value was found to be 13.6 µg/mL. Also, the “AVG EC50 T. b. brucei B48” value in the test with T. b. brucei B48 [1] (setting [10]) turned out to be 11.8 µg/mL. The “SI, selectivity index relative to T. b. brucei WT: EC50(U937)/EC50(TbbWT)” value in the test on U937 cells is recorded as more than 7.4. Further, the “AVG EC50 T. congolense IL3000” value with T. congolense IL3000 (setting [8]) is 16.7 µg/mL.
